Data published in patent US9833497B2, “Human originated EGF domain proteins and use of the same” (CHENGDU SOURCEBIO LIMITED-LIABILITY COMPANY, priority 2013, dated 2017).

What was measured:
Assay type in all cases: cell-based
[1] = system: Serratia marcescens; assay: MIC against Gram-negative bacteria: Serratia marcescens; details: 5×10^5 CFU/mL
Outline: (§1)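 Broth microdilution, LB medium, final inoculum 5×10^5 CFU/mL from McFarland 0.5 cultures. Recombinant human EGF domain proteins tested in two-fold steps, n=3. MIC: lowest concentration, no growth.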

[2] = system: Moraxella catarrhalis; assay: MIC against Gram-negative bacteria: Moraxella catarrhalis; details: 5×10^5 CFU/mL
Outline: as §1

[3] = system: E. coli BL21; assay: MIC against Gram-negative bacteria: E. coli BL21; details: 5×10^5 CFU/mL
Outline: as §1

[4] = system: Pseudomonas aeruginosa; assay: MIC against Gram-negative bacteria: Pseudomonas aeruginosa; details: 5×10^5 CFU/mL
Outline: as §1

[5] = system: Aeromonas hydrophila; assay: MIC against Gram-negative bacteria: Aeromonas hydrophila; details: 5×10^5 CFU/mL
Outline: as §1

[6] = system: Klebsiella pneumonia; assay: MIC against Gram-negative bacteria: Klebsiella pneumonia; details: 5×10^5 CFU/mL
Outline: as §1

[7] = system: Enterobacter cloacae; assay: MIC against Gram-negative bacteria: Enterobacter cloacae; details: 5×10^5 CFU/mL
Outline: as §1

[8] = system: E. coli DH5α; assay: Antibacterial activity: MIC and growth curve against E. coli DH5α in 96-well plate; details: minimal inhibitory concentration against E. coli DH5α; 96-well plate, 5×10^5 CFU/mL, 37° C., judged after 8 h
Outline: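 Log-phase DH5α (OD600 about 0.5, 37° C, 185 rpm in LB) was pelleted, resuspended in fresh LB and seeded at 5×10^5 CFU/mL with recombinant protein at 50, 25 and 12.5 μg/mL (two-fold series), in triplicate. Plates were shaken at 175 rpm, 37° C, and OD600 was read every 30 min. MIC was the lowest concentration with no growth.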

[9] = system: Proteus mirabilis; assay: MIC against Gram-negative bacteria: Proteus mirabilis; details: 5×10^5 CFU/mL
Outline: as §1

[10] = system: Proteus vulgaris; assay: MIC against Gram-negative bacteria: Proteus vulgaris; details: 5×10^5 CFU/mL
Outline: as §1

[11] = system: Citrobacter diversus; assay: MIC against Gram-negative bacteria: Citrobacter diversus; details: 5×10^5 CFU/mL
Outline: as §1

[12] = Serratia marcescens, 96-well plate, 37° C., 10 h
[13] = Moraxella catarrhalis, 96-well plate, 37° C., 10 h
[14] = E. coli BL21, 96-well plate, 37° C., 10 h
[15] = Pseudomonas aeruginosa, 96-well plate, 37° C., 10 h
[16] = Aeromonas hydrophila, 96-well plate, 37° C., 10 h
[17] = Klebsiella pneumonia, 96-well plate, 37° C., 10 h
[18] = Enterobacter cloacae, 96-well plate, 37° C., 10 h
[19] = Proteus mirabilis, 96-well plate, 37° C., 10 h
[20] = Proteus vulgaris, 96-well plate, 37° C., 10 h
[21] = Citrobacter diversus, 96-well plate, 37° C., 10 h
[22] = S. marcescens, 10 h cultivation at 37° C.
[23] = M. catarrhalis, 10 h cultivation at 37° C.
[24] = E. coli BL21, 10 h cultivation at 37° C.
[25] = P. aeruginosa, 10 h cultivation at 37° C.
[26] = A. hydrophila, 10 h cultivation at 37° C.
[27] = K. pneumonia, 10 h cultivation at 37° C.
[28] = E. cloacae, 10 h cultivation at 37° C.
[29] = P. mirabilis, 10 h cultivation at 37° C.
[30] = P. vulgaris, 10 h cultivation at 37° C.
[31] = C. diversus, 10 h cultivation at 37° C.
[32] = 10 h cultivation at 37° C., two-fold serial dilution

Substance | MIC (μg/mL) S. marcescens [1, 12] [µg/mL] | MIC (μg/mL) M. catarrhalis [2, 13] [µg/mL] | MIC (μg/mL) E. coli BL21 [3, 14] [µg/mL] | MIC (μg/mL) P. aeruginosa [4, 15] [µg/mL] | MIC (μg/mL) A. hydrophila [5, 16] [µg/mL] | MIC (μg/mL) K. pneumonia [6, 17] [µg/mL] | MIC (μg/mL) E. cloacae [7, 18] [µg/mL] | MIC [8] [mg/L] | MIC (μg/mL) P. mirabilis [9, 19] [µg/mL] | MIC (μg/mL) P. vulgaris [10, 20] [µg/mL] | MIC (μg/mL) C. diversus [11, 21] [µg/mL] | MIC (μg/mL) S. marcescens [1, 22] [µg/mL] | MIC (μg/mL) M. catarrhalis [2, 23] [µg/mL] | MIC (μg/mL) E. coli BL21 [3, 24] [µg/mL] | MIC (μg/mL) P. aeruginosa [4, 25] [µg/mL] | MIC (μg/mL) A. hydrophila [5, 26] [µg/mL] | MIC (μg/mL) K. pneumonia [6, 27] [µg/mL] | MIC (μg/mL) E. cloacae [7, 28] [µg/mL] | MIC (μg/mL) P. mirabilis [9, 29] [µg/mL] | MIC (μg/mL) P. vulgaris [10, 30] [µg/mL] | other results
PRT1495 (KANCSTTCFNGGTCFYPGKCICPPGLEGE; listed as Homo sapiens) | 25 | 50 | 12.5 | 25 | 12.5 | 25 | 12.5 | 25 | 50 | 25 | 50 |  |  |  |  |  |  |  |  |  | 
PRT17 (AGHPCTRASGHPCLNGASCVPREAAYVCLCPGGFSGPHCE; listed as Homo sapiens) | 25 | 25 | 12.5 | 12.5 | 12.5 | 25 | 50 | 12.5 | 12.5 | 50 | 50 |  |  |  |  |  |  |  |  |  | 
PRT60 (EVDECSRPNRGGCEQRCLNTLGSYKCSCDPGYELAPDKRRCE; listed as Homo sapiens) | 50 | 25 | 12.5 | 12.5 | 12.5 | 12.5 | 12.5 | 12.5 | 50 | 12.5 | 12.5 |  |  |  |  |  |  |  |  |  | 
PRT889 (DVNECVSNPCQNDATCLDQIGEFQCICMPGYEGVHCE; listed as Homo sapiens) |  |  |  |  |  |  |  | 25 |  |  |  | 25 | 12.5 | 12.5 | 25 | 12.5 | 12.5 | 12.5 | 25 | 12.5 | MIC (μg/mL) C. diversus [11, 31]: 12.5 µg/mL
PRT762 (ALDPCVLGTHQCQHVCISDGEGKHHCECSQGYTLNADKKTCS; listed as Homo sapiens) |  |  |  |  |  |  |  | 50 |  |  |  | 12.5 | 12.5 | 12.5 | 50 | 12.5 | 12.5 | 50 | 50 | 25 | MIC (μg/mL) C. diversus [11, 31]: 50 µg/mL
PRT1110 (RREQCRPLPCVHGGSCVDLWTHFRCDCARPHRGPTCA; listed as Homo sapiens) |  |  |  |  |  |  |  | 25 |  |  |  |  |  |  |  |  |  |  |  |  | MIC S. marcescens [1, 32]: 25 mg/L; MIC M. catarrhalis [2, 32]: 12.5 mg/L; MIC E. coli BL21 [3, 32]: 50 mg/L; MIC P. aeruginosa [4, 32]: 25 mg/L; MIC A. hydrophila [5, 32]: 12.5 mg/L; MIC K. pneumonia [6, 32]: 12.5 mg/L; MIC E. cloacae [7, 32]: 50 mg/L; MIC P. mirabilis [9, 32]: 25 mg/L; MIC P. vulgaris [10, 32]: 50 mg/L; MIC C. diversus [11, 32]: 50 mg/L
PRT1278 (DIDECRLNNGGCDHICRNTVGSFECSCKKGYKLLINERNCQ; listed as Homo sapiens) |  |  |  |  |  |  |  | 25 |  |  |  |  |  |  |  |  |  |  |  |  | MIC against S. marcescens [1, 12]: 12.5 mg/L; MIC against M. catarrhalis [2, 13]: 12.5 mg/L; MIC against E. coli BL21 [3, 14]: 12.5 mg/L; MIC against P. aeruginosa [4, 15]: 12.5 mg/L; MIC against A. hydrophila [5, 16]: 12.5 mg/L; MIC against K. pneumonia [6, 17]: 12.5 mg/L; MIC against E. cloacae [7, 18]: 12.5 mg/L; MIC against P. mirabilis [9, 19]: 12.5 mg/L; MIC against P. vulgaris [10, 20]: 12.5 mg/L; MIC against C. diversus [11, 21]: 12.5 mg/L
PRT670 (DVDECASRASCPTGLCLNTEGSFACSACENGYWVNEDGTACE; listed as Homo sapiens) |  |  |  |  |  |  |  | 25 |  |  |  |  |  |  |  |  |  |  |  |  | MIC S. marcescens ([1]; 96-well plate, 37° C., 10 h): 25 mg/L; MIC M. catarrhalis ([2]; 96-well plate, 37° C., 10 h): 12.5 mg/L; MIC E. coli BL21 ([3]; 96-well plate, 37° C., 10 h): 12.5 mg/L; MIC P. aeruginosa ([4]; 96-well plate, 37° C., 10 h): 25 mg/L; MIC A. hydrophila ([5]; 96-well plate, 37° C., 10 h): 12.5 mg/L; MIC K. pneumonia ([6]; 96-well plate, 37° C., 10 h): 12.5 mg/L; MIC E. cloacae ([7]; 96-well plate, 37° C., 10 h): 12.5 mg/L; MIC P. mirabilis ([9]; 96-well plate, 37° C., 10 h): 25 mg/L; MIC P. vulgaris ([10]; 96-well plate, 37° C., 10 h): 12.5 mg/L; MIC C. diversus ([11]; 96-well plate, 37° C., 10 h): 25 mg/L
PRT202 (KSTNCSSKCKGHAVCDHELQCQCEEGWIPPDCD; listed as Homo sapiens) |  |  |  |  |  |  |  | 25 |  |  |  | 25 | 12.5 | 12.5 | 12.5 | 12.5 | 12.5 | 12.5 | 25 | 12.5 | MIC (μg/mL) C. diversus [11, 31]: 12.5 µg/mL
PRT539 (CDCSGNSDPNLIFEDCDEVTGQCRNCLRNTTGFKCERCAPGYYGDARIAKNCAV; listed as Homo sapiens) |  |  |  |  |  |  |  | 12.5 |  |  |  |  |  |  |  |  |  |  |  |  | MIC against S. marcescens ([1]; 96-well plate, 37° C., 10 h): 50 mg/L; MIC against M. catarrhalis ([2]; 96-well plate, 37° C., 10 h): 25 mg/L; MIC against E. coli BL21 ([3]; 96-well plate, 37° C., 10 h): 50 mg/L; MIC against P. aeruginosa ([4]; 96-well plate, 37° C., 10 h): 12.5 mg/L; MIC against A. hydrophila ([5]; 96-well plate, 37° C., 10 h): 25 mg/L; MIC against K. pneumonia ([6]; 96-well plate, 37° C., 10 h): 25 mg/L; MIC against E. cloacae ([7]; 96-well plate, 37° C., 10 h): 50 mg/L; MIC against P. mirabilis ([9]; 96-well plate, 37° C., 10 h): 50 mg/L; MIC against P. vulgaris ([10]; 96-well plate, 37° C., 10 h): 12.5 mg/L; MIC against C. diversus ([11]; 96-well plate, 37° C., 10 h): 12.5 mg/L
